Measurements as given in patent US8722654B2, “Lipoxin analogs as novel inhibitors of angiogenesis” (The Brigham and Women's Hospital, Inc., priority 2001, dated 2014).
Blank lines part the entries; values can stand above or below the molecule they belong to.

Tests used:
HUVEC [1] = assay: Endothelial cell migration, 48-well chemotaxis chamber; format: cell-based, human; conditions: for induction of endothelial cell migration, compound alone: 100 nM, no VEGF
Protocol: VEGF, ATL-1 or vehicle were added to the lower wells of a 48-well chemotaxis chamber (NeuroProbe, Cabin John, Md.). The wells were overlaid with a 10 μm pore size polycarbonate filter coated with 0.1% gelatin. HUVEC (1×10^6) were placed in the upper wells and the chamber was incubated (37° C., 5% CO2 for 12 h). Following incubations, filters were removed, scraped of cells from the upper surface, fixed and stained with Diff-Quik (Dade Behring, Newark, Del.). Cells that migrated across the filter toward the lower surface were enumerated by light microscopy; four fields were counted at high magnification (100×). Incubations were performed in triplicate. To assess inhibition, endothelial cells were suspended in media with vehicle or ATL-1 for 15 min before placement in the chamber.

HUVEC [2] = assay: Inhibition of VEGF-stimulated HUVEC proliferation (MTT); format: cell-based, human; conditions: for % inhibition of VEGF-stimulated proliferation: equimolar 10 nM, representative experiment
Protocol: (§1) Human umbilical vein endothelial cells (HUVEC) were isolated by 0.1% collagenase digestion (Worthington Biochemical, Bedford, Mass.) and propagated on gelatin-coated (0.1%) tissue culture plates in medium 199 (Gibco BRL, Grand Island, N.Y.) supplemented with 20% heat-inactivated fetal bovine serum (BioWhittaker, Walkersville, Md.), 50 μg/ml of endothelial cell mitogen (Biomedical Technologies, Stoughton, Mass.), 8 U/ml heparin (APP, Los Angeles, Calif.), 50 U/ml penicillin and 15 μg/ml streptomycin. Only passages 2 and 3 were used in reported experiments.
(§2) HUVEC (5×10^3) were plated in 96-well plates coated with 0.1% gelatin for 1 h at room temperature. After 24 h, the medium was removed and replaced with fresh medium 199 supplemented with 5% fetal bovine serum and different concentrations of recombinant human VEGF165 (R&D Systems, Minneapolis, Minn.), LTD4 or LTB4. Endothelial cells were enumerated after 72 h using the MTT® assay (Sigma, St. Louis, Mo.) (15). ATL-1 was prepared as in Clish et al. (13). Percent inhibition was evaluated in a similar manner and included a 15 minute incubation (37° C.) with 15-epi-lipoxin A4, 15-epi-16-(para-fluoro)-phenoxy-lipoxin A4 methyl ester (ATL-1), LXA4, 15-epi-LXA4 or 15-R/S-methyl, LXA4 prior to the addition of agonists. All incubations were performed in triplicate. Before each experiment the integrity and concentration of ATL-1, LXA4, 15-epi-LXA4 or 15-R/S-methyl, LXA4 was assessed by physical methods including LC/MS/MS and UV (13).

HUVEC [3] = assay: HUVEC proliferation induced by the compound alone (MTT); format: cell-based, human
Protocol: as §1, §2

HUVEC [4] = assay: Inhibition of LTD4-stimulated HUVEC proliferation (MTT); format: cell-based, human; conditions: LTD4 10 nM; ATL-1 0.1-100 nM; read-out: IC50, antagonism of mitogenic action of LTD4
Protocol: as §1
as §2, with “Endothelial cells were enumerated after 72 h using the MTT® assay (Sigma, St. Louis, Mo.) (15). ATL-1 was prepared as in Clish et al. (13).” left out, “All incubations were performed in triplicate.” left out

murine air pouch = assay: Inflammatory angiogenesis, VEGF-treated murine air pouch; format: in vivo, mice (BALB/c)
Protocol: Angiogenesis was assessed with murine air pouches that were raised via subcutaneous injection of sterile air (3 ml) beneath the dorsal skin of anesthetized mice (BALB/c, male 6-8 wk). After 24 hrs, ATL-1 (10 μg/pouch) or vehicle was delivered locally, immediately before the injection of VEGF (1 μg/pouch). The vascular content was assessed by the formation of vascular casts (as in 16). Briefly, mice were anesthetized (at 144 h) and peripheral vasodilation was raised by placing the animals in a heated jacket (40° C., 10 min). Vascular casts were formed by the i.v. injection of 1 ml 5% carmine red (Sigma) in 5% gelatin solution warmed to 40° C. Air pouch linings were dissected and weighed. The tissue was then dissolved in 2 ml of 3 N NaOH solution for 0.5 h, 21° C. and completely digested in hot water (56° C.) for 10 min. Digested samples were centrifuged (2500 rpm, 15 min) and filtered through a 0.45 μm filter. The dye content was quantified employing a 96-well plate spectrophotometer at 530 nm using a calibration curve. The results were expressed as vascular index (VI) as micrograms carmine dye/milligram weight of tissue, for n=4 animals/group. For visualization of the vasculature, the dorsal surface of the pouches was excised and fixed in formalin for 48 h. The tissues were dehydrated with 100% ethanol (5 days, 4° C.) and cleared by immersion in cedar wood oil for 2 weeks. In another set of experiments, mice were anesthetized and injected i.v. with 200 μl of 0.05 g/ml fluorescein isothiocyanate-dextran (Sigma) in PBS at 144 h immediately before sacrifice. Dissected linings were fixed, mounted on glass slides and examined for fluorescence (Nikon Eclipse model E600). In both protocols, the observers were not blinded to the treatments.
Air pouch membranous tissues were fixed in 10% buffered formalin overnight and processed for paraffin embedding. Five-micrometer paraffin sections of membrane tissue cut on face were used for immunohistochemistry for CD31 expression. Briefly, slides were deparaffinized and pretreated in 0.25% trypsin (Sigma Chemical) for 20 min at 37° C., followed by washing in distilled water. All further steps were performed at room temperature in a hydrated chamber. Slides were pretreated with Peroxidase Block (DAKO, Carpinteria, Calif.) for 5 min to quench endogenous peroxidase activity, followed by a 1:5 dilution of goat serum in 50 Mm Tris-Cl, pH 7.4, for 20 min to block nonspecific binding sites. Primary rat anti-murine CD31 antibody (BD PharMingen, San Diego, Calif.) was applied at a 1:100 dilution in 50 mMTris-Cl, pH 7.4, with 3% goat serum for 1 h. After washing in 50 mM Tris-Cl, pH 7.4, secondary rabbit anti-rat antibody (DAKO) was applied at a 1:200 dilution in 50 mM Tris-Cl, pH 7.4, with 3% goat serum for 30 min. Slides were washed again in 50 mM Tris-Cl, pH 7.4, and goat anti-rabbit horseradish peroxidase-conjugated antibody (Envision detection kit: DAKO) was applied for 30 min. After further washing, immunoperoxidase staining was developed using a DAB chromogen kit (DAKO) per the manufacturer and counterstained with hematoxylin.

HUVEC [5] = assay: HUVEC viability, trypan blue exclusion assay; format: cell-based, human; conditions: after exposure to ATL-1
HUVEC [6] = assay: Quantitative determination of DNA fragmentation (apoptosis); format: cell-based, human; conditions: 100 nM alone or with VEGF 3 ng/ml; n=2, d=3
Protocol: DNA fragmentation in individual apoptotic cells was quantitated using a photometric enzyme immunoassay (Apotosis detection kit: R&D Systems). HUVECs grown in 96-well microtiter plates (5×10^3 cells/well) were incubated for 3 days, fixed with 3.7% formaldehyde, and permeabilized with proteinase K before the labeling. Biotinylated nucleotides are incorporated onto the DNA fragments and detected by using steptavidin-horseradish peroxidase conjugate followed by the substrate TACS-Sapphire.

[7] = Mean arterial pressure after i.v. dosing; format: in vivo; conditions: 10 μg/mouse i.v.

Molecule: CCCCCC(C)(O)/C=C/C=C\C=C\C=C\[C@@H](O)[C@@H](O)CCCC(=O)OC (relative stereo) [15-R/S-methyl, LXA4, 5S,6R,15R/S-trihydroxy-15-methyl-7,9,13-trans-11-cis-eicosatetraenoic acid, methyl ester]
induction of endothelial cell migration, compound alone (HUVEC [1]): did not induce endothelial cell migration
inhibition of VEGF-stimulated HUVEC migration (HUVEC [1]; VEGF 3 ng/ml): concentration-dependent inhibition

Molecule: CCCCC[C@@H](O)/C=C/C=C\C=C\C=C\[C@@H](O)[C@@H](O)CCCC(=O)O (relative stereo) [15-epi-LXA4, 5S,6R,15R-trihydroxy-7,9,13-trans-11-cis-eicosatetraenoic acid]
induction of endothelial cell migration, compound alone (HUVEC [1]): did not induce endothelial cell migration
inhibition of VEGF-stimulated HUVEC migration (HUVEC [1]; VEGF 3 ng/ml): concentration-dependent inhibition
% inhibition of VEGF-stimulated proliferation (HUVEC [2]): 59.8±1.8%

Molecule: CCCCC[C@H](O)/C=C/C=C\C=C\C=C\[C@@H](O)[C@@H](O)CCCC(=O)O (relative stereo) [LXA4, 5S,6R,15S-trihydroxy-7,9,13-trans-11-cis-eicosatetraenoic acid]
induction of endothelial cell migration, compound alone (HUVEC [1]): did not induce endothelial cell migration
inhibition of VEGF-stimulated HUVEC migration (HUVEC [1]; VEGF 3 ng/ml): concentration-dependent inhibition
% inhibition of VEGF-stimulated proliferation (HUVEC [2]): 38.1±2.0%

Molecule: CCCCC[C@H](O)[C@@H](O)/C=C/C=C/C=C\C=C\[C@@H](O)CCCC(=O)O [14-epi-LXB4]
Percent of Proliferation (HUVEC [3]; 0.1 nM): 15.5 ± 1.0%
Percent of Proliferation (HUVEC [3]; 1.0 nM): 18.3 ± 1.6%
Percent of Proliferation (HUVEC [3]; 10 nM): 27.0 ± 5.0%
Percent of Proliferation (HUVEC [3]; 100 nM): 27.7 ± 1.3%

Molecule: CCCCC[C@H](O)[C@H](O)/C=C/C=C/C=C\C=C\[C@@H](O)CCCC(=O)O [15-epi-LXB4]
Percent of Proliferation (HUVEC [3]; 0.1 nM): 20.1 ± 1.2%
Percent of Proliferation (HUVEC [3]; 1.0 nM): 26.1 ± 2.8%
Percent of Proliferation (HUVEC [3]; 10 nM): 34.0 ± 2.5%
Percent of Proliferation (HUVEC [3]; 100 nM): 35.2 ± 5.2%

changes in mean arterial pressure [7]: does not evoke apparent changes
Molecule: O=C(O)CCC[C@H](O)[C@H](O)/C=C/C=C/C=C\C=C\[C@@H](O)COc1ccc(F)cc1 [ATL-1, 15-epi-16-(para-fluoro)-phenoxy-lipoxin A4]
IC50 (HUVEC [4]): ~3 nM
reduction in the vascular index (murine air pouch; 10 μg/pouch local, before VEGF 1 μg/pouch, day 6): ~48%
VEGF-elicited vasculature, fluorescein isothiocyanate-dextran microscopy (murine air pouch; 10 μg/pouch, day 6): striking reduction of VEGF-elicited vasculature
vessels by CD31 immunohistochemical staining (murine air pouch; VEGF-treated mice): marked diminution of vessels
vascular density, carmine vascular casts (murine air pouch; VEGF-treated, day 6 air pouch linings): clearly reduced vascular density
HUVEC remaining viable (HUVEC [5]): ~98%
DNA fragmentation pattern (HUVEC [6]): Neither the ATL-1 (100 nM) alone nor in combination with VEGF (3 ng/ml) affected DNA fragmentation pattern
maximum level of inhibition of VEGF-stimulated HUVEC migration (HUVEC [1]; 10 nM, VEGF 3 ng/ml): ~45%
induction of endothelial cell migration, compound alone (HUVEC [1]): did not induce endothelial cell migration
inhibition of VEGF-stimulated HUVEC migration (HUVEC [1]; VEGF 3 ng/ml): concentration-dependent inhibition
action on HUVEC proliferation, analog alone (HUVEC [3]; 100 nM, no VEGF): no apparent actions
% of VEGF-stimulated proliferation (HUVEC [2]; ATL-1 plus genistein 50 μM, 5 min, 37° C., n=3): 78.0±6.21%
% of VEGF-stimulated proliferation (HUVEC [2]; ATL-1 without genistein): 38.0±2.5%
IC50 (HUVEC [2]; VEGF 3 ng/ml, 3 days, MTT, read-out: IC50, inhibition of VEGF-stimulated proliferation of HUVECs): ~3 nM
concentration of maximal plateau of inhibition (HUVEC [2]; VEGF-stimulated proliferation): 10 nM
% inhibition of VEGF-stimulated proliferation (HUVEC [2]): 63.3±3.3%

Molecule: CCCCC/C=C\C[C@@H](O)/C=C/C=C/C=C\[C@@H](O)CCCC(=O)O [LTB4, reference compound]
neovascularization, compound alone (murine air pouch; 10 μg/pouch alone, n=2): stimulated neovascularization
stimulated proliferation of HUVEC (HUVEC [3]; 10 nM): did not give a significant response

Molecule: CCCCC/C=C\C\C=C/C=C/C=C/[C@@H](SC[C@H](N)C(=O)NCC(=O)O)[C@@H](O)CCCC(=O)O [LTD4, reference compound]
stimulated proliferation of HUVEC (HUVEC [3]; 10 nM): 42±1.2%
effect of LTD4 on VEGF-stimulated proliferation (HUVEC [2]): did not enhance or inhibit

Molecule: VEGF [reference compound]
VEGF response, proliferation of HUVEC (HUVEC [3]; VEGF comparison in LTD4 experiment): 52.7±1.6%
VEGF-induced proliferation (HUVEC [3]; footnote of table, VEGF comparison): VEGF-induced proliferation: 50.4 ± 4.0%
